Data set [1] relates to macrophages. Description: Inhibition of macrophage activity (general). Type of data set: cell-based. Particulars: for propriétés au terme des mêmes tests: same tests as for the tripeptide. From the text:
(§1) Selon des tests effectués par les méthodes décrites dans l'article cité plus haut de "Immunology Letters", la L'thréonyl-L-lysyl-L-proline s'est révélée atoxique pour les cellules et inhibitrice non seulement de la libération, mais également de la synthèse de la β-glucuronidase lysosomiale. En présence du peptide, le taux intracellulaire de cette enzyme décroît également. La L-thréonyl-L-lysyl-L-proline inhibe également la stimulation des macrophages de patients allergiques par l'allergène correspondant, lorsqu'ils ont été préincubés en présence du peptide. Cette dépression est très significative (50 à 70%) dans des essais in vitro. La thréonyl-L-lysyl-L-proline présente un pouvoir inhibiteur d'environ 60% aux concentrations de 200 nanogrammes à 20 picogrammes, ce pouvoir inhibiteur étant même de 50% à 2 picogrammes. Cette inhibition par le peptide se manifeste aussi dans des essais d'activation de macrophages par des réactions (IgE)-(Anti-IgE), que ces macrophages aient été incubés auparavant in vitro en présence du peptide, ou obtenus à partir d'animaux auxquels le peptide avait antérieurement été administré par voie intraveineuse (chez le rat, à des doses de 10 µg, trois heures avant le prélèvement des cellules). La libération d'anion superoxyde par les macrophages de rats est également inhibée par le tripeptide en question. […] Le peptide administré au rat induit également une inhibition de l'anaphylaxie cutanée passive provoquée chez l'animal par les administrations successives d'un antigène et de l'antisérum correspondant.

Data set [2] has as its system β-glucuronidase lysosomiale. Description: Release and synthesis of lysosomal β-glucuronidase by macrophages. Type of data set: cell-based.
Text: as §1

Data set [3] has as its system macrophages de patients allergiques. Nature of the data set: Stimulation of macrophages of allergic patients by the corresponding allergen, in vitro. Type of data set: cell-based. From the text: D'autre part, les macrophages alvéolaires de sujets allergiques stimulés par l'allergène correspondant sont également inhibés de manière significative (50 à 60%) s'ils ont été péalablement incubés avec des produits de l'hydrolyse des IgG par les protéases parasitaires.
Selon des tests effectués par les méthodes décrites dans l'article cité plus haut de "Immunology Letters", la L'thréonyl-L-lysyl-L-proline s'est révélée atoxique pour les cellules et inhibitrice non seulement de la libération, mais également de la synthèse de la β-glucuronidase lysosomiale. En présence du peptide, le taux intracellulaire de cette enzyme décroît également. La L-thréonyl-L-lysyl-L-proline inhibe également la stimulation des macrophages de patients allergiques par l'allergène correspondant, lorsqu'ils ont été préincubés en présence du peptide. Cette dépression est très significative (50 à 70%) dans des essais in vitro. La thréonyl-L-lysyl-L-proline présente un pouvoir inhibiteur d'environ 60% aux concentrations de 200 nanogrammes à 20 picogrammes, ce pouvoir inhibiteur étant même de 50% à 2 picogrammes. […]

The test system of the next data set is cellules. Description: Toxicity for the cells. Type of data set: cell-based. Particulars: methods of the cited Immunology Letters article. From the text:
(§2) Selon des tests effectués par les méthodes décrites dans l'article cité plus haut de "Immunology Letters", la L'thréonyl-L-lysyl-L-proline s'est révélée atoxique pour les cellules et inhibitrice non seulement de la libération, mais également de la synthèse de la β-glucuronidase lysosomiale. En présence du peptide, le taux intracellulaire de cette enzyme décroît également. La L-thréonyl-L-lysyl-L-proline inhibe également la stimulation des macrophages de patients allergiques par l'allergène correspondant, lorsqu'ils ont été préincubés en présence du peptide. Cette dépression est très significative (50 à 70%) dans des essais in vitro. La thréonyl-L-lysyl-L-proline présente un pouvoir inhibiteur d'environ 60% aux concentrations de 200 nanogrammes à 20 picogrammes, ce pouvoir inhibiteur étant même de 50% à 2 picogrammes. Cette inhibition par le peptide se manifeste aussi dans des essais d'activation de macrophages par des réactions (IgE)-(Anti-IgE), que ces macrophages aient été incubés auparavant in vitro en présence du peptide, ou obtenus à partir d'animaux auxquels le peptide avait antérieurement été administré par voie intraveineuse (chez le rat, à des doses de 10 µg, trois heures avant le prélèvement des cellules). La libération d'anion superoxyde par les macrophages de rats est également inhibée par le tripeptide en question. […]

Data set [4] has as its system macrophages. Nature of the data set: Macrophage activation by (IgE)-(Anti-IgE) reactions, macrophages pre-incubated in vitro with the peptide. Type of data set: cell-based. Particulars: macrophages incubated beforehand in vitro with the peptide.
Text: as §2

For data set [5], the system named is macrophages. The following applies: macrophages challenged simultaneously by an antigen and the peptide; cited from earlier work.
Data set [6] relates to macrophages. Nature of the data set: Macrophage activation by (IgE)-(Anti-IgE) reactions, macrophages from animals given the peptide intravenously. Particulars: rat, intravenous, 10 µg, three hours before cell collection. Type of data set: in vivo.
Text: as §2

Another data set has as its system macrophages de rats. Nature of the data set: Superoxide anion release by macrophages. Type of data set: cell-based.
Text: as §2

The subject of another data set is mastocytes. Description: Mast cell degranulation in vitro. Type of data set: cell-based, rats. Particulars: pre-incubated with peptide; stimulants polymyxine or phytohémagglutinine.
The test system of data set [7] is anaphylaxie cutanée passive. Nature of the data set: Passive cutaneous anaphylaxis. Type of data set: in vivo. The following applies: rat; provoked by successive administration of antigen and corresponding antiserum.
Text: as §2

Each structure is given as a SMILES string. Residues, ends and D or L forms follow the SMILES beside them.

In the case of `N=C(N)NCCC[C@H](NC(=O)[C@@H]1CCCN1C(=O)[C@@H](N)CCCCN)C(=O)O` [L-lysyl-L-prolyl-L-arginine, reference compound] (H-Lys-Pro-Arg-OH), the “activité à l'égard de l'activité des macrophages” value with macrophages [1] is “n'est pas active”.

Turning to `C[C@@H](O)[C@H](N)C(=O)N[C@@H](CCCCN)C(=O)N1CCC[C@H]1C(=O)O` [L-thréonyl-L-lysyl-L-proline] (H-Thr-Lys-Pro-OH), in [2], the “libération de la β-glucuronidase lysosomiale” value is on record as “inhibitrice”. Moreover, in data set [2], the “synthèse de la β-glucuronidase lysosomiale” value is “inhibitrice”. Also, in [2] (β-glucuronidase, in presence of the peptide), the “taux intracellulaire de cette enzyme” value is listed as “décroît”. Further, the results for the pouvoir inhibiteur in data set [3] (2 picogrammes) and in data set [3] (concentrations de 200 nanogrammes à 20 picogrammes) were 50% and roughly 60%, respectively. The “toxicité pour les cellules” value in the data set with cellules is “atoxique”. Also, in the data set on macrophages [1], the “activité à l'égard de l'activité des macrophages” value is given as “activité inhibitrice semblable”. In addition, the “inhibition de l'activation de macrophages par des réactions (IgE)-(Anti-IgE)” value with macrophages [4] and in the data set with macrophages [6] was “inhibition” throughout. For the same molecule, the “propriété d'activer les macrophages” value in the data set with macrophages [5] is “abolition”. Besides, the “libération d'anion superoxyde par les macrophages de rats” value in the data set on macrophages de rats is reported as “inhibée”. In addition, the dégranulation des mastocytes entry with mastocytes is listed as “inhibition sensible”. Also, the “inhibition de l'anaphylaxie cutanée passive” value in [7] is recorded as “inhibition”.

As for `CC(=O)N[C@H](C(=O)N[C@@H](CCCCN)C(=O)N1CCC[C@H]1C(=O)O)[C@@H](C)O` [dérivé N-acétylé] (Ac-Thr-Lys-Pro-OH), in the data set with macrophages [1], the “propriétés au terme des mêmes tests” value is reported as “essentiellement les mêmes propriétés”.

Take `C[C@@H](O)[C@H](N)C(=O)N[C@@H](CCCCN)C(=O)N1CCC[C@H]1C(N)=O` [dérivé amidé, amide de la thréonyl-lysylproline] (H-Thr-Lys-Pro-NH2): the “propriétés au terme des mêmes tests” value in the data set with macrophages [1] was “essentiellement les mêmes propriétés”.

Values taken from patent EP0099286B1, “Compound containing a tripeptide sequence of the threonyl-lysyl proline-type, or similar, useful as an anti-inflammatory, anti-allergic or antalgesic agent” (INSTITUT PASTEUR DE LILLE, priority 1982, dated 1987).
